Results published in ChEMBL document CHEMBL1138160, “In vivo stability and photodynamic efficacy of fluorinated bacteriopurpurinimides derived from bacteriochlorophyll-a” (2006).

How the values were obtained:
RIF-1 = assay: Photosensitizing efficacy in RIF cells at 0.6-2.5 uM and light dose of 0-10 J/cm2 by MTT assay; assay type: functional, cell-based; conditions: Mus musculus
Mus musculus = assay: In vivo photosensitizing efficacy in RIF cells of C3H mouse at 1 umol/kg 90 days post-dose; assay type: functional

CC[C@H]1c2cc3nc4c(c5[nH]c(cc6[nH]c(cc(n2)[C@@H]1C)c(C(C)NCc1cc(C(F)(F)F)cc(C(F)(F)F)c1)c6C)[C@@H](C)[C@@H]5CCC(=O)OC)C(=O)N(Cc1cc(C(F)(F)F)cc(C(F)(F)F)c1)C(=O)C4=C3C (some centres not stated)
Activity (RIF-1): Dose-dependent effect | Activity (Mus musculus): 60%
